According to patent US20260132103A1, “Bumetanide Derivatives for the Therapy of Stroke and Other Neurological Diseases/Disorders Involving NKCCs” (University of Pittsburgh - Of the Commonwealth System of …, priority 2018, published 2026):

Experiments:
[1] = tested on: transient focal cerebral ischemia (tMCAO) in mice; assay: Body weight and survival 1-14 days after tMCAO; format: in vivo, mouse; settings: for body weight changes: 1-14 days after tMCAO, versus DMSO Veh control; for mortality rate: between 1-14 days post tMCAO, BMT 10, STS5 13, STS66 12 mg/kg/day i.p.
Method: FIGS. 1A-1C: Efficacy of NKCC1 inhibitors in reducing ischemic infarction, cerebral edema, and the post-stroke survival in normotensive mice after tMCAO (see Example 3). (1A) Experimental protocol and data collection. Transient middle cerebral artery occlusion (tMCAO) was induced in normal C57/b6 mice. DMSO, BMT (10 mg/kg body weight), STS5 (13 mg/kg) or STS66 (12 mg/kg) was administered via intraperitoneal injection (i.p.) as described in method. (1 B) Representative TTC staining images in normotensive mice at 24 h reperfusion with quantitative analysis of infarct volume. Data are mean±SD, n=6-13 (male, n=3-9; female, n=3-4, *p<0.05). Scale: 5 mm. (1C) Percentage hemisphere swelling at 24 h reperfusion. Data are mean±SD, n=6-13, *p<0.05. (1D) Body weight change during 1-14 days after tMCAO. Data are mean±SD, n=5-9 (male, n=4; female, n=2, *p<0.05). (1E) Survival curve during 1-14 day after tMCAO. Data are mean±SD, n=5-9 (male, n=3-7; female, n=2, *p<0.05).
Transient focal cerebral ischemia was induced in mice by intraluminal occlusion of the left middle cerebral artery (MCA) for 50 min as described previously (Chen H et al., 2005). Mice were anesthetized with 3% isoflurane in 70%: 30% N2O/O2 until they were unresponsive to the tail pinch test. Animals were then fitted with a nose cone blowing 1.5% isoflurane for anesthesia maintenance. The left common carotid artery was exposed and the occipital artery branches of the external carotid artery were isolated and coagulated. The internal carotid artery was isolated and the extracranial branch was dissected and ligated. A rubber silicon-coated monofilament suture (6-0) was introduced into the internal carotid artery lumen and gently advanced approximately 8-9 mm to block the MCA blood flow for 50 min. The rectal temperature was maintained at 37.0±0.5° C. during surgery through a temperature-controlled heating pad. Achievement of ischemia was confirmed by monitoring regional cerebral blood flow (rCBF) with laser speckle contrast imager (Pericam). For reperfusion, the suture was withdrawn after the MCAO. The incision was closed and the mouse recovered under a heating lamp to maintain the core temperature (36.0-37.0° C.) during the 30-60 min recovery period. After recovery, animals were returned to their cages with free access to food and water.
Vehicle: DMSO (2 ml/kg body weight/day), the NKCC1 inhibitor bumetanide (BMT, 10 mg/kg body weight/day in DMSO), bumetanide's prodrug STS5 (13 mg/kg body weight/day in DMSO), or the novel NKCC1 inhibitor STS66 according to the invention (12 mg/kg body weight/day in DMSO) was administered via intraperitoneal injection (i.p). The initial half dose of the drugs (BMT, STS5, STS66) was given at 3 h after the onset of reperfusion and the second half dose at 8 h reperfusion in the tMCAO model.

[2] = tested on: permanent focal cerebral ischemia (pdMCAO) in AngII-induced hypertensive mice; assay: Brain infarct volume and swelling after pdMCAO in AngII-induced hypertensive mice; format: in vivo, mouse; settings: 24 h post-pdMCAO, i.p., half dose at 3 h and 8 h after pdMCAO
Method: FIG. 3: Effects of NKCC1 inhibitors against the worsened ischemic stroke in AngII-induced hypertensive mice after pdMCAO (see Example 3). (A) Experimental protocol in AngII-induced hypertensive C57/B6 mice. Permanent distal middle cerebral artery occlusion (pdMCAO) was induced in mice at day 14 post-AngII infusion. DMSO, BMT or STS66 was administered in mice via i.p. with the initial half dose at 3 h and the second half dose at 8 h after pdMCAO. (B) Representative TTC-stained mouse coronal brain sections at 2-8 mm posterior of the frontal pole were shown. TTC staining was performed at 24 h post pdMCAO. Scale: 5 mm. (C) Brain infarct volume was calculated. Data are mean±SD. Saline (n=4), AngII (n=5); *p<0.05 vs. saline control.
Permanent focal cerebral ischemia was induced by permanent occlusion of the distal middle cerebral artery (pdMCAO) in mice (Suenaga J, et al., 2015). Under anesthesia as described above, a skin incision at the midline of the neck was made. After being separated from the vagal nerve, the left CCA was exposed and occluded by ligation and the skin was sutured. Another skin incision (1 cm) was made between the left eye and the ear using fine operation scissors. The temporal muscle was identified and detached from the skull in its apical and dorsal part without totally removing the muscle by using the forceps. The MCA below the transparent skull in the rostral part of the temporal area, dorsal to the retro-orbital sinus was identified. If the MCA bifurcation is not visible (due to an anatomical normal variation), the vessel most rostral was identified. The skull above the MCA branch was thinned out with the drill until it has a thin and translucent texture. The artery, proximal and distal to the MCA bifurcation, was coagulated with the electrocoagulation forceps (in a bipolar mode at 7 W). The temporal muscle was relocated to its position and the burr hole was covered with wax and the skin wound was sutured and infiltrated with analgesia bupivacaine (100 μl 0.25%) topically. The animal was placed in a cage and monitored for recovery from anesthesia. […]
At 24 h post-reperfusion, mice were anesthetized with 5% isoflurane and then decapitated. […] Ischemic lesions were traced in each slice in a blinded manner, and the total volume of infarction was calculated with correction for edema, as described by Swanson et al., 1990 using ImageJ software. […] Brain swelling was determined with the following formula. […]
The efficacy of NKCC1 inhibitors was then tested in AngII-induced hypertensive mice after permanent MCAO model (pdMCAO), which is more clinically relevant to the majority ischemic stroke patients (McBride D W, et al., 2017). Brain infarct volume and swelling were measured at 24 h after pdMCAO. […]

Row | SMILES | body weight changes [1] | mortality rate [1] | brain swelling (edema) [2] | infarct volume [2]
1 | CCCCNc1cc(C(=O)O)cc(S(N)(=O)=O)c1Oc1ccccc1 [BMT, 3-(butylamino)-4-phenoxy-5-sulfamoylbenzoic acid, reference compound] | no differences in the body weight changes | ~16.7% | 7.1±1.1% | 22.4±2.9 mm^3
2 | CCCCNc1cc(CNCC(F)(F)F)cc(S(N)(=O)=O)c1Oc1ccccc1 [STS66, 3-(Butylamino)-2-phenoxy-5-[(2,2,2-trifluoroethylamino)methyl]benzenesulfonamide] | no differences in the body weight changes | none of the STS66-treated mice died | 2.4±1.1% | 13.3±2.5 mm^3
